Data: the supplement of paper PMC10307832

Legend:
Experiment in all cases: relative viability (nuclei count vs DMSO), 5 days (fraction); higher = more cells survive
[1] = compound: CCn1c(-c2nonc2N)nc2c(C#CC(C)(C)O)ncc(OC[C@H]3CCCNC3)c21 + CC(C)C[C@H](NC(=O)[C@H](Cc1ccccc1)NC(=O)c1cnccn1)B(O)O [Bortezomib] (partner 0.002 µM)
Outline: (§1)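 Lung cancer cell lines in 1536-well plates were dosed by pin tool the day after seeding, either with one drug alone or with a fixed anchor-drug dose plus five library-drug doses (not always all listed) in √10 steps. After 5 days, cells were fixed and their nuclei stained in one step (final 0.05% Triton X-100, 1% formaldehyde, 1 ug/ml Hoechst), then counted on 4× images. Relative viability is the nuclei count in treated wells divided by that in vehicle wells. Values are medians of duplicate plates.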

[2] = compound: CCn1c(-c2nonc2N)nc2c(C#CC(C)(C)O)ncc(OC[C@H]3CCCNC3)c21 + NC(=O)Nc1cc(-c2cccc(F)c2)sc1C(=O)N[C@H]1CCCNC1 [AZD7762] (partner 0.2 µM)
Outline: as §1

BAM7 + Crizotinib = compound: CCOC1=CC=CC=C1N=NC2=C(NN(C2=O)C3=NC(=CS3)C4=CC=CC=C4)C [BAM7] + C[C@@H](Oc1cc(-c2cnn(C3CCNCC3)c2)cnc1N)c1c(Cl)ccc(F)c1Cl [Crizotinib] (partner 1 µM)
Outline: as §1

BAM7 + Bortezomib = compound: CCOC1=CC=CC=C1N=NC2=C(NN(C2=O)C3=NC(=CS3)C4=CC=CC=C4)C [BAM7] + CC(C)C[C@H](NC(=O)[C@H](Cc1ccccc1)NC(=O)c1cnccn1)B(O)O [Bortezomib] (partner 0.002 µM)
Outline: as §1

Cell Line | relative viability ([1]; first compound 0.01 µM) | relative viability ([1]; first compound 0.03162 µM) | relative viability ([1]; first compound 0.1 µM) | relative viability ([1]; first compound 0.3162 µM) | relative viability ([1]; first compound 1 µM) | relative viability ([2]; first compound 0.01 µM) | relative viability ([2]; first compound 0.03162 µM) | relative viability ([2]; first compound 0.1 µM) | relative viability ([2]; first compound 0.3162 µM) | relative viability ([2]; first compound 1 µM) | relative viability (BAM7 + Crizotinib; first compound 0.5 µM) | relative viability (BAM7 + Crizotinib; first compound 5 µM) | relative viability (BAM7 + Crizotinib; first compound 15.81 µM) | relative viability (BAM7 + Crizotinib; first compound 50 µM) | relative viability (BAM7 + Bortezomib; first compound 0.5 µM) | relative viability (BAM7 + Bortezomib; first compound 5 µM) | relative viability (BAM7 + Bortezomib; first compound 15.81 µM) | relative viability (BAM7 + Bortezomib; first compound 50 µM)
LU99A | 1.21 | 1.29 | 1.04 | 1.04 | 1.08 | 0.345 | 0.363 | 0.379 | 0.297 | 0.378 | 0.602 | 0.542 | 0.567 | 0.555 | 1.21 | 1.22 | 1.34 | 1.15
NCI-H2347 | 0.644 | 0.861 | – | 0.888 | 0.933 | 0.612 | 0.738 | 0.636 | 0.63 | 0.562 | 0.738 | 0.995 | 0.674 | 0.745 | 1 | 1.27 | 1.32 | 1.2
HCC-15 | 0.988 | 1.06 | 1.01 | 0.925 | 0.952 | 1.2 | 1.26 | 1.17 | 1.13 | 1.37 | 0.812 | 0.811 | 0.785 | 0.724 | 1.02 | 1.06 | 1 | 0.934
HCC-44 | 0.893 | 0.808 | 0.89 | 0.907 | 0.911 | 1.03 | 0.946 | 0.997 | 1.12 | 1.08 | 0.883 | 0.907 | 0.749 | 0.787 | 1.01 | 0.921 | 0.879 | 0.838
HCC-78 | 0.553 | 0.513 | 0.503 | 0.498 | 0.527 | 0.627 | 0.532 | 0.579 | 0.614 | 0.445 | 0.339 | 0.334 | 0.324 | 0.308 | 0.586 | 0.63 | 0.419 | 0.608
NCI-H727 | 0.782 | 0.747 | 0.999 | 0.613 | 0.791 | 0.586 | 0.6 | 0.768 | 0.631 | 0.576 | 0.843 | 0.799 | 0.714 | 0.675 | 0.832 | 1.14 | 0.916 | 0.739
NCI-H2087 | 0.682 | 0.873 | 0.655 | 0.766 | 0.774 | 1.31 | – | 1.13 | 1.35 | 1.42 | 0.887 | 0.916 | 0.856 | 0.7 | 0.892 | 0.85 | 0.843 | 0.767
BEN | 0.713 | 0.803 | 0.661 | 0.73 | 0.696 | 0.629 | 0.696 | 0.562 | 0.686 | 0.696 | 0.866 | 0.977 | 0.845 | 0.83 | 0.823 | 0.825 | 1.02 | 0.976
LCLC-103H | 1.02 | 1.12 | 1.08 | 1.07 | 0.937 | 0.752 | 0.862 | 0.743 | 0.668 | 0.696 | 1.08 | 1.03 | 1.01 | 0.804 | 1.15 | 1.1 | 1.1 | 1.18
EKVX | 1.01 | 0.862 | 1.15 | 0.994 | 0.965 | 0.699 | 0.687 | 0.632 | 0.732 | 0.596 | 1.15 | 0.963 | 0.54 | 0.711 | 1.2 | 1.15 | 0.758 | 0.986
LXF-289 | 1 | 0.963 | 1 | 0.976 | 1.02 | 1.2 | 1.15 | 1.11 | 1.06 | 1.1 | 0.924 | 0.876 | 0.773 | 0.787 | 1.07 | 1.1 | 1.02 | 1.01
ABC-1 | 0.292 | 0.299 | 0.301 | 0.332 | 0.294 | 0.705 | – | 0.568 | 0.716 | 0.594 | 1.49 | 1.34 | 0.987 | 1.21 | 0.326 | 0.355 | 0.295 | 0.383
NCI-H650 | 0.679 | 0.604 | 0.759 | 0.758 | 0.635 | 0.948 | 1.05 | 0.998 | 0.878 | 1.08 | 0.649 | 0.764 | 0.656 | 0.69 | 0.884 | 0.948 | 0.878 | 0.885
NCI-H2085 | 0.861 | 1.02 | 1.03 | 1.03 | 1.05 | 0.966 | 0.982 | 1.01 | 0.954 | 1 | 0.829 | 0.956 | 0.75 | 0.859 | 1.07 | 1.12 | 0.979 | 1.16
LC-2-ad | 0.986 | 0.993 | 1.03 | 0.977 | 0.968 | 0.86 | 0.874 | 0.885 | 0.839 | 0.867 | 0.488 | 0.518 | 0.46 | 0.463 | 1.05 | 0.974 | 0.957 | 1
NCI-H1355 | 1.23 | 1.11 | 1.15 | 1.13 | 1.19 | 0.768 | 0.762 | 0.827 | 0.625 | 0.743 | 0.968 | 1.05 | 0.937 | 0.987 | 1.2 | 1.16 | 1.13 | 1.11
H3255 | 0.634 | 0.679 | 0.83 | 0.788 | 0.688 | 0.857 | 0.943 | 1 | 0.839 | 0.846 | 0.981 | 0.883 | 0.795 | 0.814 | 0.674 | 0.798 | 0.7 | 0.624
NCI-H1993 | 1.23 | 1.23 | 1.11 | 1.03 | 0.975 | 0.836 | 0.954 | 0.923 | 0.738 | 0.725 | 0.751 | 0.843 | 0.771 | 0.826 | 0.843 | 0.836 | 0.472 | 1.09
